Data taken from patent US20070128217A1 (priority 2003, published 2007).

Columns and labels:
[1] = system: control sera (pooled serum of ten healthy LUMC hospital workers; commercial negative donor pooled serum from the Dutch bloodbank); format: binding, human; parameters: Binding of Control serum LUMC to linear peptides / Binding of Control serum Blood-bank to linear peptides / Binding of Control serum LUMC to looped peptides / Binding of Control Serum Blood-Bank to Looped peptides / Binding of Control serum LUMC to linear peptides of the protein M of SARS-CoV Urbani / Binding of Control serum Blood-bank to linear peptides of the protein M of SARS-CoV Urbani / Binding of Control serum LUMC to looped peptides of the protein M of SARS-CoV Urbani / Binding of Control Serum Blood-Bank to Looped peptides of the protein M of SARS-CoV Urbani: unit not given here
[2] = system: antibodies in sera from SARS patients (sera 1a, 1b, 2, 6, 37, 62, London, SARS-yellow, SARS-green); format: binding, human; parameters: Binding of serum 6 to linear peptides of protein X1 of SARS-CoV Urbani / Binding of serum 37 to linear peptides of protein X1 of SARS-CoV Urbani / Binding of serum 6 to looped/cyclic peptide (PEPSCAN-ELISA) / Binding of serum 37 to looped/cyclic peptide (PEPSCAN-ELISA) / Binding of serum 37 to looped/cyclic peptides of protein X1 of SARS-CoV Urbani / Binding of serum 6 to linear peptides of protein X2 / Binding of serum 37 to linear peptides of protein X2 / Binding of serum 37 to looped/cyclic peptides of protein X2 of SARS-CoV Urbani / Binding of serum 6 to linear peptides of protein M of SARS-CoV Urbani / Binding of serum 37 to linear peptides of protein M of SARS-CoV Urbani / Binding of serum 6 to looped/cyclic peptides of protein M of SARS-CoV Urbani / Binding of serum 37 to looped/cyclic peptides of protein M of SARS-CoV Urbani / Binding of serum 6 to linear peptides of protein X3 of SARS-CoV Urbani / Binding of serum 37 to linear peptides of protein X3 of SARS-CoV Urbani / Binding of serum 37 to looped/cyclic peptides of protein X3 of SARS-CoV Urbani / Binding of serum 6 to linear peptides of protein X4 of SARS-CoV Urbani / Binding of serum 37 to linear peptides of protein X4 of SARS-CoV Urbani / Binding of serum 37 to looped/cyclic peptides of protein X4 of SARS-CoV Urbani / Binding of serum 6 to linear peptides of protein X5 of SARS-CoV Urbani / Binding of serum 37 to linear peptides of protein X5 of SARS-CoV Urbani / Binding of serum 37 to looped/cyclic peptides of protein X5 of SARS-CoV Urbani / Binding of serum 6 to linear peptides of protein N of SARS-CoV Urbani / Binding of serum 37 to linear peptides of protein N of SARS-CoV Urbani / Binding of serum 6 to linear peptide (PEPSCAN-ELISA) / Binding of serum 1a to looped/cyclic peptides of protein N of SARS-CoV Urbani / Binding of serum 1b to looped/cyclic peptides of protein N of SARS-CoV Urbani / Binding of serum 2 to looped/cyclic peptides of protein N of SARS-CoV Urbani / Binding of serum 6 to looped/cyclic peptides of protein N of SARS-CoV Urbani / Binding of serum 37 to looped/cyclic peptides of protein N of SARS-CoV Urbani / Binding of serum 62 to looped/cyclic peptides of protein N of SARS-CoV Urbani / Binding of serum London to looped/cyclic peptides of protein N of SARS-CoV Urbani / Binding of serum SARS-green to looped/cyclic peptides of protein N of SARS-CoV Urbani: unit not given here
[3] = system: rabbit serum obtained by immunizing a rabbit with the SARS-CoV strain Frankfurt 1; format: binding; parameters: Binding of a rabbit serum to linear peptides / Binding of a rabbit serum to looped peptides / Rabbit serum linear peptides / Rabbit serum looped peptides / Binding of a rabbit serum to linear peptides of protein N of SARS-CoV Urbani (Rabbit serum linear peptides) / Binding of a rabbit serum to looped/cyclic peptides of protein N of SARS-CoV Urbani (Rabbit serum looped peptides): unit not given here

AAFRDVLVVLNKRTN
Binding of Control Serum Blood-Bank to Looped peptides [1]: 0.7
Binding of Control serum Blood-bank to linear peptides [1]: 0.6
Binding of Control serum LUMC to linear peptides [1]: 0.8
Binding of Control serum LUMC to looped peptides [1]: 0.4
Binding of serum 1a to linear peptides of protein X5 of SARS-CoV Urbani [2]: 0.6
Binding of serum 1a to looped/cyclic peptides of protein X5 of SARS-CoV Urbani [2]: 0.6
Binding of serum 1b to linear peptides of protein X5 of SARS-CoV Urbani [2]: 0.6
Binding of serum 1b to looped/cyclic peptides of protein X5 of SARS-CoV Urbani [2]: 0.4
Binding of serum 2 to linear peptides of protein X5 of SARS-CoV Urbani [2]: 0.6
Binding of serum 2 to looped/cyclic peptides of protein X5 of SARS-CoV Urbani [2]: 0.6
Binding of serum 6 to linear peptides of protein X5 of SARS-CoV Urbani [2]: 0.8
Binding of serum 6 to looped/cyclic peptides of protein X5 of SARS-CoV Urbani [2]: 0.8
Binding of serum 37 to linear peptides of protein X5 of SARS-CoV Urbani [2]: 0.5
Binding of serum 37 to looped/cyclic peptides of protein X5 of SARS-CoV Urbani [2]: 0.6
Binding of serum 62 to linear peptides of protein X5 of SARS-CoV Urbani [2]: 0.4
Binding of serum 62 to looped/cyclic peptides of protein X5 of SARS-CoV Urbani [2]: 0.5
Binding of serum London to linear peptides of protein X5 of SARS-CoV Urbani [2]: 0.6
Binding of serum London to looped/cyclic peptides of protein X5 of SARS-CoV Urbani [2]: 1.0
Binding of serum SARS-green to linear peptides of protein X5 of SARS-CoV Urbani [2]: 0.1
Binding of serum SARS-green to looped/cyclic peptides of protein X5 of SARS-CoV Urbani [2]: 0.4
Binding of serum SARS-yellow to linear peptides of protein X5 of SARS-CoV Urbani [2]: 0.8
Binding of serum SARS-yellow to looped/cyclic peptides of protein X5 of SARS-CoV Urbani [2]: 0.3
Rabbit serum linear peptides [3]: 0.5
Rabbit serum looped peptides [3]: 0.6

AAGMEAQFLYLYALI
Binding of Control Serum Blood-Bank to Looped peptides [1]: 0.5
Binding of Control serum Blood-bank to linear peptides [1]: 0.5
Binding of Control serum LUMC to linear peptides [1]: 0.9
Binding of Control serum LUMC to looped peptides [1]: 0.7
Binding of serum 1a to linear peptides of protein X1 of SARS-CoV Urbani [2]: 0.7
Binding of serum 1a to looped/cyclic peptide (PEPSCAN-ELISA) [2]: 0.6
Binding of serum 1b to linear peptides of protein X1 of SARS-CoV Urbani [2]: 0.6
Binding of serum 1b to looped/cyclic peptide (PEPSCAN-ELISA) [2]: 0.4
Binding of serum 2 to linear peptides of protein X1 of SARS-CoV Urbani [2]: 0.6
Binding of serum 2 to looped/cyclic peptide (PEPSCAN-ELISA) [2]: 0.5
Binding of serum 6 to linear peptides of protein X1 of SARS-CoV Urbani [2]: 0.5
Binding of serum 6 to looped/cyclic peptide (PEPSCAN-ELISA) [2]: 0.3
Binding of serum 37 to linear peptides of protein X1 of SARS-CoV Urbani [2]: 0.5
Binding of serum 37 to looped/cyclic peptide (PEPSCAN-ELISA) [2]: 0.6
Binding of serum 62 to linear peptides of protein X1 of SARS-CoV Urbani [2]: 0.5
Binding of serum 62 to looped/cyclic peptide (PEPSCAN-ELISA) [2]: 0.6
Binding of serum London to linear peptides of protein X1 of SARS-CoV Urbani [2]: 0.2
Binding of serum London to looped/cyclic peptide (PEPSCAN-ELISA) [2]: 0.2
Binding of serum SARS-green to linear peptides of protein X1 of SARS-CoV Urbani [2]: 0.2
Binding of serum SARS-green to looped/cyclic peptide (PEPSCAN-ELISA) [2]: 0.3
Binding of serum SARS-yellow to linear peptides of protein X1 of SARS-CoV Urbani [2]: 0.3
Binding of serum SARS-yellow to looped/cyclic peptide (PEPSCAN-ELISA) [2]: 0.4
Binding of a rabbit serum to linear peptides [3]: 0.1
Binding of a rabbit serum to looped peptides [3]: 0.6

VSLVKPTVYVYSRVK
Binding of Control Serum Blood-Bank to Looped peptides [1]: 0.6
Binding of Control serum Blood-bank to linear peptides [1]: 0.9
Binding of Control serum LUMC to linear peptides [1]: 0.6
Binding of Control serum LUMC to looped peptides [1]: 0.9
Binding of a rabbit serum to linear peptides [3]: 1.5
Binding of a rabbit serum to looped peptides [3]: 2.0

VYSRVKNLNSSEGVP
Binding of Control Serum Blood-Bank to Looped peptides [1]: 1.0
Binding of Control serum Blood-bank to linear peptides [1]: 0.9
Binding of Control serum LUMC to linear peptides [1]: 0.6
Binding of Control serum LUMC to looped peptides [1]: 0.7
Binding of a rabbit serum to linear peptides [3]: 0.7
Binding of a rabbit serum to looped peptides [3]: 0.0

VYVYSRVKNLNSSEG
Binding of Control Serum Blood-Bank to Looped peptides [1]: 0.8
Binding of Control serum Blood-bank to linear peptides [1]: 0.5
Binding of Control serum LUMC to linear peptides [1]: 0.8
Binding of Control serum LUMC to looped peptides [1]: 0.8
Binding of a rabbit serum to linear peptides [3]: 0.3
Binding of a rabbit serum to looped peptides [3]: 0.4

WHTHNYDYCIPYNSV
Binding of Control Serum Blood-Bank to Looped peptides [1]: 0.7
Binding of Control serum Blood-bank to linear peptides [1]: 0.7
Binding of Control serum LUMC to linear peptides [1]: 0.8
Binding of Control serum LUMC to looped peptides [1]: 0.9
Binding of a rabbit serum to linear peptides [3]: 0.1
Binding of a rabbit serum to looped peptides [3]: 0.6

WHTMVQTCTPNVTIN
Binding of Control Serum Blood-Bank to Looped peptides [1]: 0.5
Binding of Control serum Blood-bank to linear peptides [1]: 1.0
Binding of Control serum LUMC to linear peptides [1]: 0.5
Binding of Control serum LUMC to looped peptides [1]: 0.4
Rabbit serum linear peptides [3]: 0.5
Rabbit serum looped peptides [3]: 0.0

YCCNIVNVSLVKPTV
Binding of Control Serum Blood-Bank to Looped peptides [1]: 0.7
Binding of Control serum Blood-bank to linear peptides [1]: 0.9
Binding of Control serum LUMC to linear peptides [1]: 0.6
Binding of Control serum LUMC to looped peptides [1]: 0.6
Binding of a rabbit serum to linear peptides [3]: 0.7
Binding of a rabbit serum to looped peptides [3]: 0.3

YCIPYNSVTDTIVVT
Binding of Control Serum Blood-Bank to Looped peptides [1]: 0.7
Binding of Control serum Blood-bank to linear peptides [1]: 0.8
Binding of Control serum LUMC to linear peptides [1]: 0.7
Binding of Control serum LUMC to looped peptides [1]: 0.7
Binding of a rabbit serum to linear peptides [3]: 0.1
Binding of a rabbit serum to looped peptides [3]: 0.5

YDYCIPYNSVTDTIV
Binding of Control Serum Blood-Bank to Looped peptides [1]: 0.5
Binding of Control serum Blood-bank to linear peptides [1]: 0.6
Binding of Control serum LUMC to linear peptides [1]: 0.7
Binding of Control serum LUMC to looped peptides [1]: 0.6
Binding of a rabbit serum to linear peptides [3]: 0.1
Binding of a rabbit serum to looped peptides [3]: 0.5

YFVCWHTHNYDYCIP
Binding of Control Serum Blood-Bank to Looped peptides [1]: 0.6
Binding of Control serum Blood-bank to linear peptides [1]: 0.6
Binding of Control serum LUMC to linear peptides [1]: 0.7
Binding of Control serum LUMC to looped peptides [1]: 0.6
Binding of a rabbit serum to linear peptides [3]: 0.1
Binding of a rabbit serum to looped peptides [3]: 0.6

YKLGASQRVGTDSGF
Binding of Control Serum Blood-Bank to Looped peptides of the protein M of SARS-CoV Urbani [1]: 0.7
Binding of Control serum Blood-bank to linear peptides of the protein M of SARS-CoV Urbani [1]: 0.7
Binding of Control serum LUMC to linear peptides of the protein M of SARS-CoV Urbani [1]: 0.4
Binding of Control serum LUMC to looped peptides of the protein M of SARS-CoV Urbani [1]: 0.9
Rabbit serum linear peptides [3]: 0.4
Rabbit serum looped peptides [3]: 0.2

YQECVRGTTVLLKEP
Binding of Control Serum Blood-Bank to Looped peptides [1]: 0.9
Binding of Control serum Blood-bank to linear peptides [1]: 0.8
Binding of Control serum LUMC to linear peptides [1]: 0.7
Binding of Control serum LUMC to looped peptides [1]: 0.8
Rabbit serum linear peptides [3]: 0.5
Rabbit serum looped peptides [3]: 0.5

YSEDRHSGVKDYVVV
Binding of Control Serum Blood-Bank to Looped peptides [1]: 0.7
Binding of Control serum Blood-bank to linear peptides [1]: 0.7
Binding of Control serum LUMC to linear peptides [1]: 0.6
Binding of Control serum LUMC to looped peptides [1]: 0.8
Binding of a rabbit serum to linear peptides [3]: 0.1
Binding of a rabbit serum to looped peptides [3]: 0.4

YSELDDEEPMELDYP
Binding of Control Serum Blood-Bank to Looped peptides of the protein X3 of SARS-CoV Urbani [1]: 0.8
Binding of Control serum Blood-bank to linear peptides of the protein X3 of SARS-CoV Urbani [1]: 0.7
Binding of Control serum LUMC to linear peptides of the protein X3 of SARS-CoV Urbani [1]: 0.9
Binding of Control serum LUMC to looped peptides of the protein X3 of SARS-CoV Urbani [1]: 0.8
Rabbit serum linear peptides [3]: 0.3
Rabbit serum looped peptides [3]: 0.3
